Experimental data published in EP0831877B1, “METABOLIC EFFECTS OF CERTAIN GLUTATHIONE ANALOGS” (TELIK, INC., priority 1995, dated 1996).
“And” between values parts separate entries of the source, which are not always exact repeats. Identical values can stand only once. Like-named read-outs stand apart in the source and are kept apart here.

Key:
[1] = system: bone marrow GM-CFU; test: carboplatin-induced GM-CFU suppression in mice; type: in vivo; conditions: TER199 120mg/kg, i.p., carboplatin 90 mg/kg
Protocol: Bone marrows were harvested 24 hours after administration of the second drug.

[2] = system: peripheral blood cells; test: peripheral blood response to 5-FU with i.p. TER199 in rats; type: in vivo, Sprague-Dawley derived rats; conditions: 5-FU 150 mg/kg i.p. day one
Protocol: Sprague-Dawley derived rats were treated according to the schedule below (Table 11).

[3] = system: normal human bone marrow erythroid (BFU-E) progenitor cells; test: colony formation, human bone marrow BFU-E; type: cell-based
Protocol: (§1) The effects are dose-dependent, usually in the range of 1.0 to 10.0 µM, and in most cases for cells stimulated by GM-CSF, G-CSF, M-CSF, Flt3/Flk-2 and Steel factor (stem cell factor/c-kit ligand). Of particular interest was the finding that TER199 enhances colony formation stimulated by combinations of cytokines. Additionally, the enhancing effect is more pronounced in human than in murine bone marrow.

[4] = system: CD34^+++ cells from human cord blood or bone marrow; test: CD34+++ cell differentiation in the presence of cytokines; type: cell-based; conditions: 0.1 µM-10 µM TER199, erythropoietin 1 unit/ml, IL-3 100 unit/ml
[5] = system: SKOV-3 an ovarian carcinoma; test: standard clonogenic assay, potentiation of drug toxicity, SKOV-3; type: cell-based; conditions: test dose not given
Protocol: ; SKOV-3 an ovarian carcinoma, and VLB, a vinblastine-resistant variant of SKOV-3. Four chemotherapeutic drugs, chlorambucil, adriamycin, mitomycin C and doxorubicin were used as the toxic agents. In these assays, the cells were seeded at 300 cells/well in 2 ml of medium in 6-well plates in the presence of the compounds used in the invention as the diethyl esters. […]. After incubation for 1-2 hours to permit cells to attach, varying doses of the chemotherapeutic agents were added. At least three replicate wells were plated for each test condition and the plates were incubated for two weeks. Colonies were fixed in 95% ethanol and stained with crystal violet for colony counting. IC50 values were determined for the chemotherapeutic agent in the presence or absence of the compound used in the invention and dose modification factors were calculated by dividing the IC50 value of drug without the compound by the IC50 value of the drug with the compound.

[6] = system: bone marrow GM-CFU; conditions: TER199 90 mg/kg i.p. 1 hour prior to melphalan 10 mg/kg i.p.
[7] = system: normal BDF1 mouse bone marrow multipotential (CFU-GEMM) progenitor cells; test: colony formation, mouse bone marrow CFU-GEMM; type: cell-based; conditions: EPO + 50 ng/ml SLF
Protocol: as §1

[8] = system: bone marrow GM-CFU; test: 5-fluorouracil-induced GM-CFU suppression in mice; conditions: for GM-CFU: harvest 48 hours after 5-FU
Protocol: The control group was not treated with either drug. Bone marrows were harvested and GM-CFUs were determined 24 hours after the final injection.
Values are the mean ± SE of three mice per point.

[9] = system: HT4-1 tumors; test: potentiation of melphalan toxicity in vivo, implanted HT4-1 tumors; design: species or system Male scid mice; conditions: group 5: 5 mg/kg melphalan + 60 mg/kg TER199, seven days; when control tumors reached 1500 mm^3
Protocol: Male scid mice were subcutaneously implanted with HT4-1 tumors from donor mice. HT4-1 is a subclone of HT-29, a human colon cancer. When tumors reached approximately 100 mm^3, the mice were randomized into six treatment groups and treated for seven days as follows: • 1. 5 mg/kg melphalan; • 2. 10 mg/kg ethacrynic acid; • 3. […] 5 mg/kg melphalan + 10 mg/kg ethacrynic acid; • 5.
The mice were monitored for weight changes and tumor volumes were determined by measurement with calipers. The tumor growth was monitored until the average tumor size reached 1500 mm^3 for all groups except melphalan with ethacrynic acid.
The results were computed in terms of the tumor volume in the drug treated mice as a percentage of control tumor volume (i.e., in the group administered vehicle alone). In group 1, administered melphalan alone, the tumors were approximately 75% of the volume of controls. […] For group 4 administered a combination of melphalan and ethacrynic acid, the volumes were approximately 35% of control. […] (The volume measurements were taken at the time control tumors reached 1500 mm^3.)

[10] = in vitro half-life in human blood; type: in vitro ADME
[11] = system: HT-29 cells; test: Cytosensor Microphysiometer acidification rates; type: cell-based, human; conditions: 4 hours pretreatment, TER199 20 µM, ethacrynic acid 50 µM
Protocol: The metabolic effects related to toxicity of the compounds of the invention on HT-29 cells, were tested using a Cytosensor Microphysiometer made by Molecular Devices, Inc., Menlo Park, CA and described in McConnell, H.M. et al. Science (1992) 257:1906-1912 and by Wada, H.G. et al. AATEX (1992) 1:154-164. Changes in pH of the culture medium are measured as a function of cellular metabolism. Acidification rates of the small volume of liquid flowing over the cells correlate with the number of live cells in the reaction chamber; a reduction of acidification rate reflects reduced numbers of surviving cells. […] The medium was then replaced with serum-free low buffer capacity medium and Microphysiometer analysis was initiated.

[12] = system: normal human bone marrow multipotential (CFU-GEMM) progenitor cells; test: colony formation, human bone marrow CFU-GEMM; type: cell-based; conditions: EPO + 50 ng/ml SLF
Protocol: as §1

[13] = system: peripheral blood cells; test: peripheral blood response to 5-FU with oral TER199 in mice; type: in vivo; conditions: 150 mg/kg 5-FU IP, 24 hours later oral 150 mg/kg TER199, versus 5-FU alone
Protocol: The mice were bled through the retroorbital plexus and the blood samples were analyzed for changes in blood counts.

[14] = TER199 60 mg/kg b.i.d. or 120 mg/kg q.d. i.p. day 2-10
[15] = EPO + 50 ng/ml SLF, TER199 1.0 µM
[16] = EPO + 50 ng/ml SLF, TER199 10 µM

CCOC(=O)[C@@H](N)CCC(=O)N[C@@H](CSCc1ccccc1)C(=O)N[C@@H](C(=O)OCC)c1ccccc1 [TER199, γE ethyl ester-C(Bz)-R-(-)-ϕG ethyl ester]
carboplatin-induced GM-CFU suppression (Figure 12, panel A) [1]: reduces carboplatin-induced GM-CFU suppression | platelet levels (Figure 14) [2, 14]: recovered to normal levels by study Day 12 | white blood cell, neutrophil, and lymphocyte levels (Figure 14) [2, 14]: reached pretest levels sooner than the 5-FU-treated group | red blood cell counts (Figure 14) ([2]; TER199 i.p. day 2-10, compared to 5-FU control animals): observed decrease is reduced | Colony number ([3]; EPO 1 U/ml, TER199 0.1 µM): 35±3 and 38±3 | Colony number ([3]; EPO 1 U/ml, TER199 1.0 µM): 60±2 and 58±1 | Colony number ([3]; EPO 1 U/ml, TER199 10 µM): 57±4 and 59±2 | Colony number ([3]; EPO + 50 ng/ml SLF, TER199 0.1 µM): 92±4 and 80±5 | % change from control [3, 15]: 22% and 35% | Colony number [3, 15]: 107±7 and 80±3 | % change from control [3, 16]: 24% and 29% | Colony number [3, 16]: 109±2 and 85±3 | BFU-E (Figure 16) [4]: modest positive effects | CFU-GEMM colony formation (Figure 16) ([4]; steel factor 50 ng/ml): modest positive effects | DMF for Adriamycin [5]: 1.14 | DMF for Chlorambucil [5]: 1.24 | DMF for Doxorubicin [5]: 1.14 | GM-CFU [6]: 8 % of control value | % change from control ([7]; TER199 0.1 µM): 0% | Colony number ([7]; TER199 0.1 µM): 2±1 | % change from control ([7]; TER199 10 µM): 0% | Colony number ([7]; TER199 10 µM): 2±1 | GM-CFU counts per femur ([8]; 60 mg/kg TER199 IP 24 hours after 75 mg/kg 5-FU IP): greater than control values | number of GM-CFUs per femur compared with fluorouracil alone ([8]; 60 mg/kg TER199 IP simultaneously with 75 mg/kg 5-FU IP): fourfold increase | GM-CFU ([8]; TER199 150 mg/kg p.o. 24 hours after 5-FU 75 mg/kg i.p.): 90 % of control | GM-CFU ([8]; TER199 150 mg/kg p.o. 24 hours after 5-FU 150 mg/kg i.p.): 71 % of control | GM-CFU by day 4 after 5-FU administration (Figure 9b) ([8]; TER199 IP 24 hours after 5-FU): about twice that of control | effect on GM-CFU (Figure 9c) ([8]; TER199 i.p. 24 hours prior to 5-FU): essentially no effect | tumor volume as a percentage of control tumor volume [9]: approximately 55% | half-life [10]: ~1.5 h | half-life, comparison of the three compounds [10]: approximately the same | effect on acidification rates, compound alone (Figure 2) ([11]; no chlorambucil): Neither γE-C(Bz)-ϕG diethylester (TER199) nor ethacrynic acid alone had any appreciable effect | effect of pretreatment on acidification rates with chlorambucil (Figure 2) ([11]; then 100 µM chlorambucil): potentiated the effect of chlorambucil | Colony number ([12]; TER199 0.1 µM): 12±1 and 19±2 | Colony number ([12]; TER199 1.0 µM): 17±2 and 23±2 | % change from control ([12]; TER199 10 µM): 60% and 36% | Colony number ([12]; TER199 10 µM): 16±1 and 30±1 | lymphocytes (Figure 15c) [13]: no differences were found | monocytes (Figure 15d) [13]: statistically significant difference only on day 9 | neutrophils (Figure 15b) [13]: statistically significant difference was obtained only on day 9 | total white cell counts (Figure 15a) [13]: essentially no significant difference
